Measurements: patent publication US8344145B2, “Salts of 2-substituted quinolines” (priority 2008, dated 2013)
Where two headings read alike, the source gives them in different places.

Columns and labels:
female CD-1 mice [1] = test: Acute toxicity: blood biochemical parameters on the final day (nephrotoxicity, hepatotoxicity); conditions: blood sample on final day (day 14)
Procedure: (§1) 250 mg of carboxymethylcellulose are dissolved in 50 ml of a 5% glucose solution. 5 ml aliquots containing 0.5% of Tween 80 are emulsified with the quinoline salts (final concentrations at 0.4 mg/ml, 4 mg/ml and 40 mg/ml). The emulsions are subsequently homogenized. The emulsions are administered by force feeding in a single dose to four groups of five female CD-1 mice at the concentrations of 10 mg/kg, 100 mg/kg and 1000 mg/kg and without compounds (control group). The control group receives a glucose-comprising emulsion containing 0.5% of carboxymethyl-cellulose (CMC) and […]. The behavior of the animals is observed and the number of deaths is counted after 1 min, 15 min, 30 min, 1 h, 4 h, 8 h and each day for 14 days. On the final day, a blood sample is taken. Biochemical analyses are carried out in order to evaluate the nephrotoxicity and the hepatotoxicity, the levels of creatinine, of aspartate aminotransferase (ASAT), of alanine aminotransferase (ALAI) and of cholesterol being quantitatively determined.

[2] = Hygroscopicity: water vapour sorption/desorption isotherm (DVS-1000); type: physicochemical; conditions: 25° C./60% relative humidity, in comparison with weight equilibrated at 0% relative humidity at 25° C.
Procedure: The hygroscopicity of the 2-(n-propyl)quinoline camsylate crystals is evaluated by studying the sorption/desorption isotherm of water in the vapor phase on a device of DVS-1000 type sold by SMS.
The sample, analyzed in a quartz pan with a specimen size of the order of 10 mg, is subjected to two cycles of variation in relative humidity (RH) which are linked together continuously. Each cycle comprises two stages, adsorption and then desorption of water, during which the relative humidity in the measuring chamber is increased and then decreased gradually according to the conditions described in table 2.
The sample is first dried under a stream of filtered dry air until its weight has stabilized. The stages of adsorption and of desorption are then made successively. The carrier gas used to maintain the relative humidity at a set percentage is air dried upstream of the device and delivered at a flow rate of 100 ml/min. During the progression of the program, the temperature in the measuring chamber is maintained at 25° C.

female CD-1 mice [3] = conditions: 5 animals
Procedure: as §1

[4] = Chemical stability of solutions in five solvents, HPLC daily for 9 days; conditions: 200 μg/ml in methanol, pH 7 buffer, camphorsulfonic acid pH 2, DMSO, CMC 0.5%/Tween 80 0.5%, 4° C., ambient with light, ambient without light
Procedure: The quinoline salts are dissolved at a concentration of 200 μg/ml in five different solvents: methanol, an aqueous solution buffered at pH 7, an aqueous camphorsulfonic acid solution at pH 2, dimethyl sulfoxide (DMSO) and an aqueous solution comprising a mixture of carboxymethylcellulose at 0.5% and Tween 80 at 0.5%.
Each preparation is divided into three parts which are stored under different conditions of temperature and of luminosity: at 4° C., at ambient temperature under the influence of light and at ambient temperature with the exclusion of light. The samples are diluted (1:20) and then analyzed by high performance liquid chromotography (HPLC) daily for 9 days.
Use was made, in carrying out the high performance liquid chromotography analysis, of a Waters LC system comprising a model 600 pump with inline degassing and, as detector, a 996 photodiode detector device. The acquisition of the data was carried out by the use of the Empower® program (Waters, France). The column used was a Symmetry Shield RP18, 3.5 μm 4.6×150 mm. […] The UV absorbance spectra were recorded at between 210 and 400 nm. The chromatogram of the propyl salt was recorded at 233 nm and that of the alcohol derivative at 249 nm.

CC1(C)C2CCC1(CS(=O)(=O)O)C(=O)C2.CCCc1ccc2ccccc2n1 (centres unmarked) [Camphorsulfonate salt of 2-(n-propyl)quinoline]
ALAT (female CD-1 mice [1]; dose 10 mg/kg oral): 215 ± 123 IU/l | ASAT (female CD-1 mice [1]; dose 10 mg/kg oral): 410 ± 57 IU/l | Cholesterol (female CD-1 mice [1]; dose 10 mg/kg oral): 3.9 ± 0.3 mM | Creatinine (female CD-1 mice [1]; dose 10 mg/kg oral): <18 µM | ALAT (female CD-1 mice [1]; dose 100 mg/kg oral): 168 ± 67 IU/l | ASAT (female CD-1 mice [1]; dose 100 mg/kg oral): 515 ± 72 IU/l | Cholesterol (female CD-1 mice [1]; dose 100 mg/kg oral): 4.1 ± 0.5 mM | Creatinine (female CD-1 mice [1]; dose 100 mg/kg oral): <18 µM | ALAT (female CD-1 mice [1]; dose 1 g/kg oral): 199 ± 89 IU/l | ASAT (female CD-1 mice [1]; dose 1 g/kg oral): 422 ± 187 IU/l | Cholesterol (female CD-1 mice [1]; dose 1 g/kg oral): 3.8 ± 0.4 mM | Creatinine (female CD-1 mice [1]; dose 1 g/kg oral): <18 µM | increase in weight (water sorption) [2]: less than 2% | acute toxicity observation (female CD-1 mice [3]; single dose 10 mg/kg oral route): absence of toxicity | acute toxicity observation (female CD-1 mice [3]; single dose 100 mg/kg oral route): absence of toxicity | mice showing signs of lethargy (female CD-1 mice [3]; single dose 1 g/kg oral route, t15 min): t15 min = 3 mice showed | lethargic mice (female CD-1 mice [3]; single dose 1 g/kg oral route, t1 h): t1 h = 2 lethargic mice | acute toxicity observation (female CD-1 mice [3]; single dose 1 g/kg oral route, t4 h): t4 h = absence of toxicity | chemical stability in solution ([4]; listed as 2-(n-propyl)quinoline in the form of the camphorsulfonic acid salt): chemical stability compatible with the development of a medicament | chemical stability in solution ([4]; listed as propyl salt): stable whatever the conditions tested
